According to patent publication US7772267B2, “Bicyclic modulators of androgen receptor function” (Bristol-Myers Squibb Company, priority 2002, dated 2010):

Key:
AR = biological target: T1, AR (Rattus norvegicus, UniProt P15207)
T1 sequence (P15207 1-902): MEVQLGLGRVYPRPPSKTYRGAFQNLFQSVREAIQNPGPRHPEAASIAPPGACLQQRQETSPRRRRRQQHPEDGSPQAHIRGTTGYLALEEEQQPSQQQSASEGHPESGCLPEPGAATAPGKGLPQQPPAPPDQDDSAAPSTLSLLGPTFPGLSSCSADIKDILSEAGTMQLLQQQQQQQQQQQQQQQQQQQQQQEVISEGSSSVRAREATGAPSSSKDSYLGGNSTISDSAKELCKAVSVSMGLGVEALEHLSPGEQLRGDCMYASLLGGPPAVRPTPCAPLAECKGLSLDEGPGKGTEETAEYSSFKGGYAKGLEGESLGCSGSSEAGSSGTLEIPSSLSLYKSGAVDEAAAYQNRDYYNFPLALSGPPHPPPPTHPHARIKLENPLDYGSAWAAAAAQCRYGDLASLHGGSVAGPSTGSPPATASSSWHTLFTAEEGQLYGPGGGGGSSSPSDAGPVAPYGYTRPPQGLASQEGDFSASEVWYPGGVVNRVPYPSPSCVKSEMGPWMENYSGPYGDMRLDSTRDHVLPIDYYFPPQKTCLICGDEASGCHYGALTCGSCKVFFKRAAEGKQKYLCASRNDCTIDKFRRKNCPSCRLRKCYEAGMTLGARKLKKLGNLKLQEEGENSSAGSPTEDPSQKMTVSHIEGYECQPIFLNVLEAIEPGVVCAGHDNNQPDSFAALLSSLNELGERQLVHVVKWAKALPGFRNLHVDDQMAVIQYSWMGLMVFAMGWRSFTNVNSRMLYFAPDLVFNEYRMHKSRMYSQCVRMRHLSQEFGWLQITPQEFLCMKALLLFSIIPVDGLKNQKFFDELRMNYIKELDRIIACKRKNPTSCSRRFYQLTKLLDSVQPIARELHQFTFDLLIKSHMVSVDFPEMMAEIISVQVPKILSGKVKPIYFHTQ
Text: The activity of compounds of the present invention as AR agonists was investigated in an immature male rat model, a recognized test of anabolic effects in muscle and sustaining effects in sex organs for a given compound, as described in L. G. Hershberger et al., Proc. Soc. […] Biol. Med., 83, 175 (1953); B. L. Beyler et al, “Methods for evaluating anabolic and catabolic agents in laboratory animals”, J. Amer. Med. Women's Ass., 23, 708 (1968); H. Fukuda et al., “Investigations of the levator ani muscle as an anabolic steroid assay”, Nago Dai. Yak. Ken. Nem. 14, 84 (1966) the disclosures of which are herein incorporated by reference.
The basis of this assay lies in the well-defined action of androgenic agents on the maintenance and growth of muscle tissues and sexual accessory organs in animals and man. […] J. Anat. […] I. Quantitative data” Boll.-Soc. Ital. Biol. Sper. […] II. Electron-microscopic observations” Boll.-Soc. Ital. Biol. Sper. 42, 1600 (1966); A. Boris et al., Steroids 15, 61 (1970). As described above, the effects of androgens on maintenance of male sexual accessory organs, such as the prostate and seminal vesicles, is well described. Castration results in rapid involution and atrophy of the prostate and seminal vesicles. This effect can be reversed by exogenous addition of androgens. […]

[1] = system: endogenous glucocorticoid receptor (A549 cells); test: In vitro assay to measure GR-induced AP-1 transrepression (luciferase reporter in A549 cells); type: cell-based; details: at a concentration of ≦10 µM; typical value for the positive control
Description: The AP-1 assay is a cell-based luciferase reporter assay. A549 cells, which contain endogenous glucocorticoid receptor, were stably transfected with an AP-1 DNA binding site attached to the luciferase gene. Cells are then grown in RPMI+10% fetal calf serum (charcoal-treated)+Penicillin/Streptomycin with 0.5 mg/mL geneticin. Cells are plated the day before the assay at approximately 40000 cells/well. On assay day, the media is removed by aspiration and 20 μL assay buffer (RPMI without phenol red+10% FCS (charcoal-treated)+Pen/Strep) is added to each well. At this point either 20 μL assay buffer (control experiments), the compounds of the present invention (“test compounds”) (dissolved in DMSO and added at varying concentrations) or dexamethasome (100 nM in DMSO, positive control) are added to each well. The plates are then pre-incubated for 15 min at 37° C., followed by stimulation of the cells with 10 ng/mL PMA. The plates are then incubated for 7 h at 37° C. after which 40 μL luciferase substrate reagent is added to each well. Activity is measured by analysis in a luminometer as compared to control experiments treated with buffer or dexamethasome. […] The control, dexamethasone, at a concentration of ≦10 µM typically suppresses activity by 65%.

## Cc1c(N2C[C@@H]3[C@@H](O)CCN3C2=O)ccc(C#N)c1Cl
other
  melting point: 148 to 149 °C

## CCC(=O)O[C@H]1CC[C@H]2[C@@H]3CCC4=CC(=O)CC[C@]4(C)[C@H]3CC[C@]12C [TP, Testosterone Propionate]
AR; castrated rats, organ weight increase
  EC50 (increase in organ weight): ~0.03 mg
AR; higher potency than free T
  potency relative to free T: 10-30 fold

## C[C@@H]1C[C@H]2[C@@H]3CCC4=CC(=O)C=C[C@]4(C)[C@@]3(F)[C@@H](O)C[C@]2(C)[C@@]1(O)C(=O)CO [dexamethasone]
[1]
  suppression of activity (% inhibition of the reporter system vs buffer control with 10 ng/mL PMA alone): 65%
